Columns and labels:
[1] = target: T1, PSMA-expressing LS174T cells (LS174T-PSMA) (Homo sapiens, UniProt Q04609); test: Binding and internalization assay with 111In-labeled ligands; assay type: cell-based; settings: 2 h 37 °C
T1 construct: expressed in transfected cells; host or cells: LS174T colon carcinoma cells (human), stably transfected with pcDNA3.1-hPSMA
Protocol: Cell lines were purchased from the American Type Culture Collection. LS174T colon carcinoma cells were stably transfected with human PSMA using the plasmid pcDNA3.1-hPSMA and cultured in RPMI 1640 medium supplemented with 2 mM glutamine, 10% FCS, and 0.3 mg/ml G418 at 37 °C in a humidified atmosphere with 5% CO2 [5].
Binding and internalization characteristics of all ligands were compared using LS174T-PSMA and wildtype LS174T cells. Cells were cultured to confluency in 6-wells plates followed by incubation at 37 °C for 2 h in 1 ml binding buffer (RPMI/0.5% BSA) with 50,000 counts per minute (cpm) of ^111In-labeled ligand (0.1-0.25 pmol/well). Nonspecific binding was determined by coincubation with 2-(phosphonomethyl)pentane-1,5-dioic acid (2-PMPA, 21.57 µM). PSMA-specific binding was defined as nonspecific binding subtracted from total binding. To retrieve the membrane-bound fraction, cells were washed with PBS twice and incubated with acid buffer (0.1 M acetic acid, 154 mM NaCl, pH 2.6) for 10 minutes at 0 °C. After incubation, the membrane bound fraction (in acid buffer) was collected, cells were washed, lysed with 0.1 M NaOH and cell lysis (intercellular activity) was collected. Membrane-bound activity and intercellular activity fractions were measured in a gamma-counter (2480 WIZARD^2 Automatic Gamma Counter, PerkinElmer), [25]. Human serum was used to determine the in vitro serum stability of the multimodal ligands (0.8 µg/ml serum, 5 MBq/μg labeling). After incubation for 2 h at 37°C, serum proteins were precipitated by adding a 1:1 (v/v) volume of acetonitrile followed by 5 min of centrifugation at 3220×g. Stability was evaluated by RP-HPLC analysis after 2 h of incubation at 37 °C. […] Experimental details are described in the supplementary materials and methods.

[2] = Lipophilicity, PBS/n-octanol; assay type: physicochemical; settings: radiolabeled ligand
Protocol: Tubes were vortexed vigorously for 1 min and centrifuged for 5 min at 201×g for phase separation. The concentration of radioactivity in a defined volume of each layer was measured in a well-type gamma-counter.

[3] = tested on: LS174T-PSMA and LS174T xenografts; test: Biodistribution of 111In-labeled multimodal ligands; assay type: in vivo, BALB/c nude mice; settings: 0.3 nmol, 2 h p.i.
Protocol: Animal experiments were performed in 8-10 weeks old male BALB/c nude mice (Janvier). Animals were housed in individually ventilated cages (Blue line IVC, 4-5 mice per cage) under nonsterile standard conditions with cage enrichment present and free access to chlorophyll-free animal chow (Sniff GmbH) and water. Mice were subcutaneously inoculated with 3.0 x 10^6 LS174T-PSMA cells in the left flank and 1.5 × 10^6 LS174T cells in the right flank, diluted in 200 μL of complete RPMI 1640 medium. Eleven days after tumor cell inoculation when xenografts were approximately 0.1 cm^3, tracers were injected intravenously via the tail vein. The researchers were not blinded for the experimental groups and tumor-bearing mice were block-randomized into groups based on tumor size. All experiments were approved by the institutional Animal Welfare Committee of the Radboud university medical center and were conducted in accordance to the guidelines of the Revised Dutch Act on Animal Experimentation.
Mice were injected intravenously with 10 MBq ^111In-labeled PSMA ligands (0.3 nmol, molar activity 33.3 MBq/nmol) in PBS/0.5% BSA. Two hours post injection, mice were euthanized by CO2/O2-asphyxation and images were acquired with the IVIS fluorescence imaging system (Xenogen VivoVision IVIS Lumina II, Caliper Life Sciences), using an acquisition time of 10 s. Subsequently, µSPECT/CT images were acquired (U-SPECT II, MILabs) with a 1.0 mm diameter pinhole mouse collimator tube [26]. Mice were scanned for 30 min followed by a CT scan (spatial resolution 160 μm, 65 kV, 615 μA) for anatomical reference. µSPECT/CT scans were reconstructed with MILabs reconstruction software, using an ordered-subset expectation maximization algorithm, energy windows 154 - 188 keV and 220-270 keV, 3 iterations, 16 subsets, voxel size of 0.4 mm. SPECT/CT scans were analyzed and maximum intensity projections (MIPs) were created using the Inveon Research Workplace software version 4.1 (Siemens Preclinical Solutions). NIRF images were analyzed using Living Image software version 4.2 (Caliper Life Sciences). Tissues of interest were dissected, weighed and measured for radioactivity in a gamma-counter as described above. In the fluorescence-guided surgery feasibility study, pre-operative imaging was performed to visualize tumor tissue. After white light resection, NIRF imaging was repeated to assess if any remaining tumor was present.

T1 sequence (Q04609 whole entry): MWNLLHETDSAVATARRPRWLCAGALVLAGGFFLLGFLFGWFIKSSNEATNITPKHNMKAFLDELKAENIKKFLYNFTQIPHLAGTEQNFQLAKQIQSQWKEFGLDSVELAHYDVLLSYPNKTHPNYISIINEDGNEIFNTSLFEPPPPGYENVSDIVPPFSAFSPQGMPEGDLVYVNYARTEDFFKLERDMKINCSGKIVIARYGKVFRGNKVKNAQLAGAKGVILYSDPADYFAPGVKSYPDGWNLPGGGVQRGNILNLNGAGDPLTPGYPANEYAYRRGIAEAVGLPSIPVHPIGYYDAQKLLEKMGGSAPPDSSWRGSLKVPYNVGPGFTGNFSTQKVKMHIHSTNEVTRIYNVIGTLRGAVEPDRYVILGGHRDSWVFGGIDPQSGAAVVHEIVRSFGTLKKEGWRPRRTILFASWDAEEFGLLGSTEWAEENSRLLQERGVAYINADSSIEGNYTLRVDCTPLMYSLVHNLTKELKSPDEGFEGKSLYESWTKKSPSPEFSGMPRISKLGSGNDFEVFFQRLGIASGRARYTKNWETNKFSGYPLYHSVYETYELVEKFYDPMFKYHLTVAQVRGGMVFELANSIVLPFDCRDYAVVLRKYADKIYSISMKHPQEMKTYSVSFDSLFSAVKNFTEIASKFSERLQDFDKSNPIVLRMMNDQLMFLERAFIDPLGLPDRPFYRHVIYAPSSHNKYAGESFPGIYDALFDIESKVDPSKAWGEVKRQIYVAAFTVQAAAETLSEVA

Compound: C[Si](C)(CCC[N+](CCCS(=O)(=O)O)(CCCS(=O)(=O)O)CCCS(=O)(=O)O)O[Si-2]123(O[Si](C)(C)CCC[N+](CCCS(=O)(=O)O)(CCCS(=O)(=O)O)CCCS(=O)(=O)O)n4c5c6ccccc6c4N=C4c6cccc(OCCCOC(=O)NCCCCCC(=O)NCCCC[C@H](NC(=O)CCC(C(=O)O)N7CCN(CC(=O)O)CCN(CC(=O)O)CCN(CC(=O)O)CC7)C(=O)N[C@H](Cc7ccccc7)C(=O)NCCCCCC(=O)NCCCC[C@H](NC(=O)N[C@@H](CCC(=O)O)C(=O)O)C(=O)O)c6C(=[N+]41)N=c1c4ccccc4c(n12)=NC1=[N+]3C(=N5)c2ccccc21.[Na+].[Na+].[Na+].[Na+] (some centres unmarked) [N046]
- Internalized fraction [1]: 2.0 ± 0.39
- Membrane bound fraction [1]: 0.8 ± 0.06
- LogD [2]: -2.4 ± 0.03
- Adrenals [3]: 1.2 %ID/g
- Blood [3]: 0.7 %ID/g
- Bone [3]: 0.4 %ID/g
- Bone marrow [3]: 0.2 %ID/g
- Duodenum [3]: 0.3 %ID/g
- Heart [3]: 0.3 %ID/g
- Kidney [3]: 31.9 %ID/g
- Liver [3]: 0.8 %ID/g
- Lung [3]: 0.4 %ID/g
- Muscle [3]: 0.2 %ID/g
- Pancreas [3]: 0.2 %ID/g
- Prostate [3]: 0.9 %ID/g
- Salivary glands [3]: 0.4 %ID/g
- Spleen [3]: 1.1 %ID/g
- Stomach [3]: 0.3 %ID/g
- Tumor+ LS174T-PSMA [3]: 4.3 %ID/g
- Tumor- LS174T [3]: 0.4 %ID/g
- Tumor/Blood ratio [3]: 14.9
- Tumor/Kidney ratio [3]: 0.2
- Tumor/Liver ratio [3]: 6.1
- Tumor/Muscle ratio [3]: 39.3
- Tumor/Negative tumor ratio [3]: 10.8
- Tumor/Prostate ratio [3]: 10.7
- Tumor/Salivary gland ratio [3]: 12.5
- Tumor/Spleen ratio [3]: 4.4 ± 1

Compound: C[Si](C)(CCC[N+](CCCS(=O)(=O)O)(CCCS(=O)(=O)O)CCCS(=O)(=O)O)O[Si-2]123(O[Si](C)(C)CCC[N+](CCCS(=O)(=O)O)(CCCS(=O)(=O)O)CCCS(=O)(=O)O)n4c5c6ccccc6c4N=C4c6cccc(OCCCOC(=O)NCCCCCC(=O)NCCCC[C@H](NC(=O)[C@H](CCC(=O)O)NC(=O)CN7CCN(CC(=O)O)CCN(CC(=O)O)CCN(CC(=O)O)CC7)C(=O)N[C@H](Cc7ccccc7)C(=O)N[C@@H](CCC(=O)O)C(=O)N[C@@H](CCC(=O)O)C(=O)NCCCCCC(=O)NCCCC[C@H](NC(=O)N[C@@H](CCC(=O)O)C(=O)O)C(=O)O)c6C(=[N+]41)N=c1c4ccccc4c(n12)=NC1=[N+]3C(=N5)c2ccccc21.[Na+].[Na+].[Na+].[Na+] [N122]
- Internalized fraction [1]: 1.4 ± 0.20
- Membrane bound fraction [1]: 0.6 ± 0.01
- LogD [2]: -2.8 ± 0.06
- Adrenals [3]: 1.7 %ID/g
- Blood [3]: 0.6 %ID/g
- Bone [3]: 0.7 %ID/g
- Bone marrow [3]: 0.4 %ID/g
- Duodenum [3]: 0.4 %ID/g
- Heart [3]: 0.5 %ID/g
- Kidney [3]: 72.5 %ID/g
- Liver [3]: 1 ± 0.2 %ID/g
- Lung [3]: 1 ± 0.3 %ID/g
- Muscle [3]: 0.2 %ID/g
- Pancreas [3]: 0.3 %ID/g
- Prostate [3]: 0.4 %ID/g
- Salivary glands [3]: 0.5 %ID/g
- Spleen [3]: 1.6 %ID/g
- Stomach [3]: 0.4 %ID/g
- Tumor+ LS174T-PSMA [3]: 7.6 %ID/g
- Tumor- LS174T [3]: 0.5 %ID/g
- Tumor/Blood ratio [3]: 13.9
- Tumor/Kidney ratio [3]: 0.2
- Tumor/Liver ratio [3]: 8.1
- Tumor/Muscle ratio [3]: 48.4
- Tumor/Negative tumor ratio [3]: 17.8
- Tumor/Prostate ratio [3]: 21.5
- Tumor/Salivary gland ratio [3]: 18.6
- Tumor/Spleen ratio [3]: 5.2

Compound: C[Si](C)(CCC[N+](CCCS(=O)(=O)O)(CCCS(=O)(=O)O)CCCS(=O)(=O)O)O[Si-2]123(O[Si](C)(C)CCC[N+](CCCS(=O)(=O)O)(CCCS(=O)(=O)O)CCCS(=O)(=O)O)n4c5c6ccccc6c4N=C4c6cccc(OCCCOC(=O)NCCCCCC(=O)NCCCC[C@H](NC(=O)CCC(C(=O)O)N7CCN(CC(=O)O)CCN(CC(=O)O)CCN(CC(=O)O)CC7)C(=O)N[C@@H](CCC(=O)O)C(=O)N[C@@H](CCC(=O)O)C(=O)N[C@@H](CCC(=O)O)C(=O)NCCCCCC(=O)NCCCC[C@H](NC(=O)N[C@@H](CCC(=O)O)C(=O)O)C(=O)O)c6C(=[N+]41)N=c1c4ccccc4c(n12)=NC1=[N+]3C(=N5)c2ccccc21.[Na+].[Na+].[Na+].[Na+] (some centres unmarked) [N143]
- Internalized fraction [1]: 3.6 ± 0.22
- Membrane bound fraction [1]: 0.5 ± 0.20
- LogD [2]: -2.4 ± 0.10
- Adrenals [3]: 2.5 %ID/g
- Blood [3]: 0.3 %ID/g
- Bone [3]: 1.2 %ID/g
- Bone marrow [3]: 0.4 %ID/g
- Duodenum [3]: 0.6 %ID/g
- Heart [3]: 0.5 %ID/g
- Kidney [3]: 112.8 %ID/g
- Liver [3]: 1 ± 0.2 %ID/g
- Lung [3]: 0.7 %ID/g
- Muscle [3]: 0.3 %ID/g
- Pancreas [3]: 0.4 %ID/g
- Prostate [3]: 1.4 %ID/g
- Salivary glands [3]: 0.6 %ID/g
- Spleen [3]: 3.1 ± 1 %ID/g
- Stomach [3]: 0.5 %ID/g
- Tumor- LS174T [3]: 0.5 %ID/g
- Tumor/Blood ratio [3]: 56
- Tumor/Kidney ratio [3]: 0.2
- Tumor/Liver ratio [3]: 15.2
- Tumor/Muscle ratio [3]: 72.3
- Tumor/Negative tumor ratio [3]: 36.7
- Tumor/Prostate ratio [3]: 32.9
- Tumor/Salivary gland ratio [3]: 28.8
- Tumor/Spleen ratio [3]: 5.2
